This series is described as follows: Liver microsome stability, rat. The format is in vitro ADME. As to conditions: Sprague-Dawley, rat liver microsomes, pH 7.4. On the procedure: Tests were performed by WuXi AppTec, China. Test compounds (at 1 μM) or positive controls (testosterone, propafenone, and diclofenac) were incubated at 37 °C with liver microsomes from Balb/c mouse, golden (Syrian) hamster, Sprague-Dawley rat, Beagle dog, or human in the presence of a NADPH regenerating system and phosphate buffer (100 mM, pH 7.4) at 0.4 or 0.8 mg/mL microsomal protein. The samples were removed at time intervals from 0 to 60, 90, or 120 min and immediately mixed with cold methanol supplemented or not with acid (3% formic acid) and centrifuged prior to analysis by LC-MS/MS using tolbutamide or propranolol as internal standards.
(In general: Liver microsomes are a subcellular fraction often used to study metabolism.)

For `Cc1c(C(=O)Nc2ccc3c(c2)B(O)OC3)nnn1-c1ccccn1` [Compound 23, N-(1-Hydroxy-1,3-dihydrobenzo[c][1,2]oxaborol-6-yl)-5-methyl-1-(pyridin-2-yl)-1H-1,2,3-triazole-4-carboxamide], the intrinsic metabolic clearance (microsomal CLint) at 1 μM was < 11.9 µL/min/mg.

For orientation: microsomal CLint means the capacity of the preparation to metabolise the compound, expressed as a volume cleared per time. Higher therefore signals rapid turnover.

The values are drawn from article PMC8591608, “DNDI-6148: A Novel Benzoxaborole Preclinical Candidate for the Treatment of Visceral Leishmaniasis” (Journal of Medicinal Chemistry, 2021).
